Measurements: ChEMBL document CHEMBL5678818, “Discovery of potent SOS1 inhibitors that block RAS activation via disruption of the RAS-SOS1 interaction” (Proc Natl Acad Sci U S A, 2019)

Key:
[1] = target: Ribosomal protein S6 kinase alpha-6 (Homo sapiens) (UniProt Q9UK32); test: Inhibition of N-terminal RSK4 […] domain 1 (unknown origin) assessed as residual activity at 1000 nM by KINOMEscan analysis relative to control
[2] = target: Cyclin-dependent kinase 16 (Homo sapiens) (UniProt Q00536); test: Inhibition of PCTK1 (unknown origin) assessed as residual activity at 1000 nM by KINOMEscan analysis relative to control
[3] = target: Serine/threonine-protein kinase 32B (Homo sapiens) (UniProt Q9NY57); test: Inhibition of YANK2 (unknown origin) assessed as residual activity at 1000 nM by KINOMEscan analysis relative to control
Chain of Serine/threonine-protein kinase 32B (Homo sapiens) (Q9NY57 whole entry): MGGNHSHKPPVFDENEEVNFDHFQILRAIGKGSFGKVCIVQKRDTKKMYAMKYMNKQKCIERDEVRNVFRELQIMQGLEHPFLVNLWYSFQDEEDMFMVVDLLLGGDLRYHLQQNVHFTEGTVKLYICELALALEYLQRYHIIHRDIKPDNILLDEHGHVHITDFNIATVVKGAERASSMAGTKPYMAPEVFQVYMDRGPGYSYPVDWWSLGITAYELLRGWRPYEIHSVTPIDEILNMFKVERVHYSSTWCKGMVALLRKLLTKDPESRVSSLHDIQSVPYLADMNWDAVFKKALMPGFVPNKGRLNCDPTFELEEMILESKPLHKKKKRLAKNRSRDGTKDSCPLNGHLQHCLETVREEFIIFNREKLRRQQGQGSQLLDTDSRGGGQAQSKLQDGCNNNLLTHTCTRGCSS

[4] = target: T1, Serine/threonine-protein kinase D2 (Homo sapiens) (UniProt Q9BZL6); test: Inhibition of PRKD2 (unknown origin) assessed as residual activity at 1000 nM by KINOMEscan analysis relative to control
T1 sequence (whole entry): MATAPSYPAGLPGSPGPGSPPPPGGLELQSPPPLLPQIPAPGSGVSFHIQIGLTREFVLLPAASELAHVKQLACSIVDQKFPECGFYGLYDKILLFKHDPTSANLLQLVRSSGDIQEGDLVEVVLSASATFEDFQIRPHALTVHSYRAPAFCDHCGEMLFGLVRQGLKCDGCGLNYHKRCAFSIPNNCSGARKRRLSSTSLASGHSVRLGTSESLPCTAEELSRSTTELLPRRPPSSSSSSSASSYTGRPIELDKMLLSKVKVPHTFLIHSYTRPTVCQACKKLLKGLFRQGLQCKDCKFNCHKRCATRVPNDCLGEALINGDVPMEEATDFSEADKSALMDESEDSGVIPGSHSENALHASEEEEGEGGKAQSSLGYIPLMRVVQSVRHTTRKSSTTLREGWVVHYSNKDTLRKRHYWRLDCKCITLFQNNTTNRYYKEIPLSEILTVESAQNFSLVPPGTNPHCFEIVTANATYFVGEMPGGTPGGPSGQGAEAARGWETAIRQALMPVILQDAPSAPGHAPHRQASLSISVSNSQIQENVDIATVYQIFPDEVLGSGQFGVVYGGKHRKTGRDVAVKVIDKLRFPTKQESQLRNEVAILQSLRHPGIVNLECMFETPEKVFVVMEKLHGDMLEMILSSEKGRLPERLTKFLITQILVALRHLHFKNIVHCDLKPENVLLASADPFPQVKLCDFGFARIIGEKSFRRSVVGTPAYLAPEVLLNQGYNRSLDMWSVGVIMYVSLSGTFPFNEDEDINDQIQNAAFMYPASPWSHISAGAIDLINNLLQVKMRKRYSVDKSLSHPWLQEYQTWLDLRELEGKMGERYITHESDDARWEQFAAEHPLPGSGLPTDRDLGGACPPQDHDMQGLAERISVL

[5] = target: T2, Serine/threonine-protein kinase Nek10 (Homo sapiens) (UniProt Q6ZWH5); test: Inhibition of NEK10 (unknown origin) assessed as residual activity at 1000 nM by KINOMEscan analysis relative to control
T2 sequence (whole entry): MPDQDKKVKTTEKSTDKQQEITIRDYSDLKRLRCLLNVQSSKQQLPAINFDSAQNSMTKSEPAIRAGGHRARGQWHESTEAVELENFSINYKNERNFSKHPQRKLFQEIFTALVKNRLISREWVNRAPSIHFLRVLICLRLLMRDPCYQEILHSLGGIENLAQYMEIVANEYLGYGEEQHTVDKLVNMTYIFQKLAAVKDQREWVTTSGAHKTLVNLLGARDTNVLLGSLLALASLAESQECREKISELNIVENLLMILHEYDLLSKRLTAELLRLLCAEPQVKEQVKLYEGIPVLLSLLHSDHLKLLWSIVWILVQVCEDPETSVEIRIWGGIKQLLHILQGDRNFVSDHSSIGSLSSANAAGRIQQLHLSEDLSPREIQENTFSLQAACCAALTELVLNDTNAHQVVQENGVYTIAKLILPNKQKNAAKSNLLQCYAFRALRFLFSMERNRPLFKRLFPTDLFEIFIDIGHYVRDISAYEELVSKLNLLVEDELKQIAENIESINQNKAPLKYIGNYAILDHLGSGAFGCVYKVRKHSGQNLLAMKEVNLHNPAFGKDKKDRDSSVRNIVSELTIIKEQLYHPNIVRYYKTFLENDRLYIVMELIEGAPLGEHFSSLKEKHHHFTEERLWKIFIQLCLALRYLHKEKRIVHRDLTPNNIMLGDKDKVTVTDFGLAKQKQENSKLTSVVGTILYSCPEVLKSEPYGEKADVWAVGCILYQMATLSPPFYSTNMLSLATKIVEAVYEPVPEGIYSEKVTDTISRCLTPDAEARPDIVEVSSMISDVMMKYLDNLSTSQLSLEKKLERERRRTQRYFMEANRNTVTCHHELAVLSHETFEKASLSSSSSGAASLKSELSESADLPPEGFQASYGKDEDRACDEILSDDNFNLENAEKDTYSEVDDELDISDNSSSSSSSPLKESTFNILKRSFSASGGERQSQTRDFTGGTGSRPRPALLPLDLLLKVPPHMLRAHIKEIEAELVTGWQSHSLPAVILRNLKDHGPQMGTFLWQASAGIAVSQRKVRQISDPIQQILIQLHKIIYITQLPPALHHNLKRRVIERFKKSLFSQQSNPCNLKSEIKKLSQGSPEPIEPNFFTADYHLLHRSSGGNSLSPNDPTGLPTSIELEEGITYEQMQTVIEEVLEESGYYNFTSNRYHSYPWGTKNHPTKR

[6] = target: ALK tyrosine kinase receptor (Homo sapiens) (UniProt Q9UM73); test: Inhibition of ALK (unknown origin) assessed as residual activity at 1000 nM by KINOMEscan analysis relative to control
Chain of ALK tyrosine kinase receptor (Homo sapiens) (Q9UM73 19-1620 limits assumed): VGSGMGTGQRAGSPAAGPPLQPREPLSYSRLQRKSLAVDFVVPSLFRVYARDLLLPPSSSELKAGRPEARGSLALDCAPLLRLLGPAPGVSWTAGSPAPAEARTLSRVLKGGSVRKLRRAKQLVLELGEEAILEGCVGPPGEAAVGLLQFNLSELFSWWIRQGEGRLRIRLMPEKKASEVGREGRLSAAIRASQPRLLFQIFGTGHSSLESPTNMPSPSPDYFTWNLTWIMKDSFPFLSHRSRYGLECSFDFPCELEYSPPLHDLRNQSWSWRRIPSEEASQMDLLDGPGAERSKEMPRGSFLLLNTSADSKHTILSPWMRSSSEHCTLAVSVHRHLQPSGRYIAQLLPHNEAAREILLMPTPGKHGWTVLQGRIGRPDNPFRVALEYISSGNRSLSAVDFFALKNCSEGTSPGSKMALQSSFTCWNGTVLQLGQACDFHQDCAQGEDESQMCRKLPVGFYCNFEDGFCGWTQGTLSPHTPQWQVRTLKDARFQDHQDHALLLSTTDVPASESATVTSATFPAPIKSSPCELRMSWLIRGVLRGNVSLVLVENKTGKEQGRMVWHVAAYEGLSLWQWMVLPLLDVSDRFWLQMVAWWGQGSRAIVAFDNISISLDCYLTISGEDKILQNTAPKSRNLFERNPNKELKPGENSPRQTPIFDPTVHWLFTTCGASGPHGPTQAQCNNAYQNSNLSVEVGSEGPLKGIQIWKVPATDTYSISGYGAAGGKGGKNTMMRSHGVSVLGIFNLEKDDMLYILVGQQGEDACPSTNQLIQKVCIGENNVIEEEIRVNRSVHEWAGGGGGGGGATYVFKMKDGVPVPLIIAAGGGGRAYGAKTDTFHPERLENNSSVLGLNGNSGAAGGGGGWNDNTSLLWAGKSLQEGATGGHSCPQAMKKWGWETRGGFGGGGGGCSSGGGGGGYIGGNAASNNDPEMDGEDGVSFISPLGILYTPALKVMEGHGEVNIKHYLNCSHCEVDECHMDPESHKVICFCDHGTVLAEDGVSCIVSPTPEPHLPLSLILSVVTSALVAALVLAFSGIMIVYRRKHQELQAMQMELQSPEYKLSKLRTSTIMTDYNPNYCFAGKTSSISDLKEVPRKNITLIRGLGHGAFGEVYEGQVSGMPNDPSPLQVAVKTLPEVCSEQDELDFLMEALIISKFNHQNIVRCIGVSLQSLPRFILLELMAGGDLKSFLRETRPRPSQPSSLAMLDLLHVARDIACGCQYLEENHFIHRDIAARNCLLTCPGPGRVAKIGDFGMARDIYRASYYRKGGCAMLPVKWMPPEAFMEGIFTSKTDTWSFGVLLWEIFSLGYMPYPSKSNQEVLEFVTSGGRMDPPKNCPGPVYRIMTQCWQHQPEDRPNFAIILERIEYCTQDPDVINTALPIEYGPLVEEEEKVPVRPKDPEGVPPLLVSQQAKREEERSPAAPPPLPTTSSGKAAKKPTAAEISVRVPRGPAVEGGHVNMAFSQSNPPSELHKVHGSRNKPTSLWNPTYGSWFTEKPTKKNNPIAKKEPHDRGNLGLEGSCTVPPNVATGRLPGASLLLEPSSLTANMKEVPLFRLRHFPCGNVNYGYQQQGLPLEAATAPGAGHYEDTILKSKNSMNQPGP

[7] = target: Ribosomal protein S6 kinase alpha-5 (Homo sapiens) (UniProt O75582); test: Inhibition of C-terminal RPS6KA5 kinetic domain 2 (unknown origin) assessed as residual activity at 1000 nM by KINOMEscan analysis relative to control
Chain of Ribosomal protein S6 kinase alpha-5 (Homo sapiens) (O75582 whole entry, looked up, the tested form may be a part): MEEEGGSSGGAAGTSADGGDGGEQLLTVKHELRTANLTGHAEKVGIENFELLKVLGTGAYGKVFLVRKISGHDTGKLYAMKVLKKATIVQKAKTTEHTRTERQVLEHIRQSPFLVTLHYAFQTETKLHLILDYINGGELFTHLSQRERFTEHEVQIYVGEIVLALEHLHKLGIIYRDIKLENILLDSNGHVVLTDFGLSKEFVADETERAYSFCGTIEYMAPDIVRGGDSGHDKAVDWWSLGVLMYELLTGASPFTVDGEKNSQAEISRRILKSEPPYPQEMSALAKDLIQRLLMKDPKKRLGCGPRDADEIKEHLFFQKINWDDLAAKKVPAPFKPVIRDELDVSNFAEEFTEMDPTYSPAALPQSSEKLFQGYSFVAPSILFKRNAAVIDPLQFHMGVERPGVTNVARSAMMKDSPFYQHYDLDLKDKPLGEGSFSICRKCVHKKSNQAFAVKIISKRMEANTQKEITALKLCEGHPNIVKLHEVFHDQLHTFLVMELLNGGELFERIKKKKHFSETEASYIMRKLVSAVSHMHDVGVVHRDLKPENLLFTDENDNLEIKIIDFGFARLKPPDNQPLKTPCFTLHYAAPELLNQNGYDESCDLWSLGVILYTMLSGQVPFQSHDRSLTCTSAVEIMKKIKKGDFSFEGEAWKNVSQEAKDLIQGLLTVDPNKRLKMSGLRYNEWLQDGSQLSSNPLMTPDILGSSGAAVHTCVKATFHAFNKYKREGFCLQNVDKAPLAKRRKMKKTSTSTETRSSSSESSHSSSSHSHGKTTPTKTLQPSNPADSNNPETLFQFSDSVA

[8] = target: Focal adhesion kinase 1 (Homo sapiens) (UniProt Q05397); test: Inhibition of FAK (unknown origin) assessed as residual activity at 1000 nM by KINOMEscan analysis relative to control
Chain of Focal adhesion kinase 1 (Homo sapiens) (Q05397 2-1052 limits assumed): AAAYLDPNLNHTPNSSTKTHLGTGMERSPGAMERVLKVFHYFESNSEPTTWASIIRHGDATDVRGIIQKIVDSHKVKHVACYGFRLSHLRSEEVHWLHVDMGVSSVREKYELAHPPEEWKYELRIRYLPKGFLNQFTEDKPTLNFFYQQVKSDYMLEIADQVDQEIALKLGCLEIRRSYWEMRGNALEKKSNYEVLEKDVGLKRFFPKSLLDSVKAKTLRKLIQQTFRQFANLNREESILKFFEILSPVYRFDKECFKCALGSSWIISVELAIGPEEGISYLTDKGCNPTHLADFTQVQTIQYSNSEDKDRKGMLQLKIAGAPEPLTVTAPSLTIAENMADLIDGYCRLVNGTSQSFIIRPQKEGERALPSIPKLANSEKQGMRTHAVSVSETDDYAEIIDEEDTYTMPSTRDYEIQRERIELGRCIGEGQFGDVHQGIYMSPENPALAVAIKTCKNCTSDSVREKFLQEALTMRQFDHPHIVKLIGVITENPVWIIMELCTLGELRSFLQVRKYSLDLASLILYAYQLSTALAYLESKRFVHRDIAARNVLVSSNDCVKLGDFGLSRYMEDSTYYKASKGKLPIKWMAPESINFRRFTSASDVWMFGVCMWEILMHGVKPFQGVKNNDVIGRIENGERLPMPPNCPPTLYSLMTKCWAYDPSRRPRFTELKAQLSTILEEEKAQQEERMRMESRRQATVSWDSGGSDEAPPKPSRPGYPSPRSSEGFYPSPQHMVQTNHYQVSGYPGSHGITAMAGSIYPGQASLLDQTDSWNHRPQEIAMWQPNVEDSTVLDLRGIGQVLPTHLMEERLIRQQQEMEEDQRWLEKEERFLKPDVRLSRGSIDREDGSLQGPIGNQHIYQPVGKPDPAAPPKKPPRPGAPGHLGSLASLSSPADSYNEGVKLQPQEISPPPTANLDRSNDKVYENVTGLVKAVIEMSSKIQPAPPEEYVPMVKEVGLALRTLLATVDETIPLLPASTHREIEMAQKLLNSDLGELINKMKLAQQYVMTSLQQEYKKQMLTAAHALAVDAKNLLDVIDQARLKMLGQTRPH

[9] = target: Activated CDC42 kinase 1 (Homo sapiens) (UniProt Q07912); test: Inhibition of TNK2 (unknown origin) assessed as residual activity at 1000 nM by KINOMEscan analysis relative to control
Chain of Activated CDC42 kinase 1 (Homo sapiens) (Q07912 whole entry, looked up): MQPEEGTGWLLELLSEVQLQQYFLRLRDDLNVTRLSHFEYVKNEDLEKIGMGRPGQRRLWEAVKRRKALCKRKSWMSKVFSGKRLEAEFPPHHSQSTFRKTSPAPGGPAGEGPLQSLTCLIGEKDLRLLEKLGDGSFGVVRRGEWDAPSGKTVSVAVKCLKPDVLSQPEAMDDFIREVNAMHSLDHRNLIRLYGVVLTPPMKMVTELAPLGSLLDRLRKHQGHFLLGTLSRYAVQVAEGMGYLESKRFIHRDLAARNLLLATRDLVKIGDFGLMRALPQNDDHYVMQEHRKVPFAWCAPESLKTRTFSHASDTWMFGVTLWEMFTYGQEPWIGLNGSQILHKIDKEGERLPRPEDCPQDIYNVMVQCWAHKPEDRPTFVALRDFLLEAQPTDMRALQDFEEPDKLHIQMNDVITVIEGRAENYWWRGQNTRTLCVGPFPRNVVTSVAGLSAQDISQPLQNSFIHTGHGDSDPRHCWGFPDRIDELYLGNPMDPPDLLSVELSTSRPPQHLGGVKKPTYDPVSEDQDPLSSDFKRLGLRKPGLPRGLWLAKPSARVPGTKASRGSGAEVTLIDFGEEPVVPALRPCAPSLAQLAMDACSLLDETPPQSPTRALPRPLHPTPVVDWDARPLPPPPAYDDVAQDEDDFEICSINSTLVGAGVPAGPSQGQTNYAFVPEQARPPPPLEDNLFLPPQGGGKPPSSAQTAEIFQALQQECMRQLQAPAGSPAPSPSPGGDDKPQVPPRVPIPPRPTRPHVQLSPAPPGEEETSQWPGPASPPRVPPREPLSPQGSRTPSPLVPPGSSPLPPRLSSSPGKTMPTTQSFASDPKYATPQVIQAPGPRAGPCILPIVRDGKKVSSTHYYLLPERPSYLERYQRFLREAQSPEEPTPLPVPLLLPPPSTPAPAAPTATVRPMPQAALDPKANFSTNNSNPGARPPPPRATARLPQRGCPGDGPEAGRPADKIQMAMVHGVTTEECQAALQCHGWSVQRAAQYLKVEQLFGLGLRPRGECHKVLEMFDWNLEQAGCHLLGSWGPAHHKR

Structure (SMILES) | Activity [1] | Activity [2] | Activity [3] | Activity [4] | Activity [5] | Activity [6] | Activity [7] | Activity [8] | Activity [9]
COc1cc2ncnc(N[C@H](C)c3cccc4ccccc34)c2cc1OC | 100% | 88% | 92% | 90% | 68% | 85% | 92% | 100% | 100%
COc1cc2nc(C)nc(N[C@H](C)c3cccc(-c4cn[nH]c4)c3)c2cc1OC | 78% | 95% | 86% | 100% | 90% | 100% | 100% | 95% | 70%
